Assay results taken from patent US20200383969A1, “RIMEGEPANT FOR CGRP RELATED DISORDERS” (Biohaven Pharmaceutical Holding Company Ltd., priority 2018, published 2020).

Test: Study 303 (BHV3000-303), Phase 3, rimegepant 75 mg ODT vs placebo, acute treatment of migraine
Assay type: in vivo, human
Text: Clinical Trial—BHV3000-303: Phase 3: Double-Blind, Randomized, Placebo-Controlled, Safety and Efficacy Trial of BHV-3000 (Rimegepant) Orally Discintegrating Tablet (ODT) for the Acute Treatment of Migraine (ClinicalTrials.gov Identifier: NCT03461757) • Study Type: Interventional (Clinical Trial) • Actual Enrollment: 1812 participants • Allocation: Randomized • Intervention Model: Parallel Assignment • Masking: Triple (Participant, Care Provider, Investigator) • Primary Purpose: Treatment • Official Title: BHV3000-303: Phase 3, Double-Blind, Randomized, Placebo Controlled, Safety and Efficacy Trial of BHV-3000 (Rimegepant) Orally Disintegrating Tablet (ODT) for the Acute Treatment of Migraine • Actual Study Start Date: Feb. 27, 2018 • Actual Primary Completion Date: Oct. 8, 2018 • Actual Study Completion Date: Oct. 15, 2018 • 1. Pain freedom of rimegepant compared with placebo in the acute treatment of migraine will be measured using the number of evaluable subjects that report no pain at 2 hours post-dose. • Pain will be measured on a 4 point Likert scale (0=none, 1=mild, 2=moderate, 3=severe) • 2. Freedom from the most bothersome symptom (MBS) of rimegepant compared with placebo will be measured using the number of evaluable subjects that report the absence of their MBS at 2 hours post-dose. [Time Frame: Two Hours Post Dose] • The MBS (nausea, phonophobia or photophobia) will measured using a binary scale (0=absent, 1=present). • 1. […] [Time Frame: 2 Hours Post-Dose] • Pain Relief as measured by a 4 point numeric rating scale (None, Mild, Moderate, Severe) • 2. […] [ Time Frame: 2 hours-24 hours post-dose] • Sustained Pain Relief as measured by a 4 point numeric rating scale (None, Mild, Moderate, Severe) • 4. […] To measure rimegepant compared to placebo on the probability of requiring rescue medication will be assessed using the number of subjects that take rescue medication within […] administration of study medication (BHV3000 or placebo). […] Sustained ability to function at a normal level as measured by the Functional disability scale [Time Frame: 2 to 24 hours post dose] • Subjects self-report “normal” on the functional disability scale • 7. […] [Time Frame: 2 hours-48 hours post-dose] • Sustained Pain Relief as measured by a 4 point numeric rating scale (None, Mild, Moderate, Severe) • 8. […] Sustained ability to function at a normal level as measured by the Functional disability scale [Time Frame: 2 to 48 hours post dose] • Subjects self-report “normal” on the functional disability scale • 10. […] [Time Frame: 90 minutes post dose] • Pain Relief as measured by a 4 point numeric rating scale (None, Mild, Moderate, Severe) • 13. […] [Time Frame: 2 hours -24 hours post-dose] • Sustained Pain Freedom as measured by a 4 point numeric rating scale (None, Mild, Moderate, Severe) • 14. […]

LFTs>3×ULN, number of patients (Study 303): one
Structure (SMILES): N[C@@H]1c2cccnc2[C@H](OC(=O)N2CCC(n3c(=O)[nH]c4ncccc43)CC2)CC[C@H]1c1cccc(F)c1F [Rimegepant, [(5S,6S,9R)-5-amino-6-(2,3-difluorophenyl)-6,7,8,9-tetrahydro-5H-cyclohepta[b]pyridin-9-yl] 4-(2-oxo-3H-imidazo[4,5-b]pyridin-1-yl)piperidine-1-carboxylate]
Clinical benefit through 48 hours (pain relief, pain freedom, MBS, functional disability) vs placebo (Study 303, single dose): Lasting clinical benefit | Safety and tolerability (Study 303 vs Studies 301 and 302): consistent with the profile previously observed | Highest incidence of any single adverse event (rimegepant group, Study 303 paragraph, sentence follows mention of pooled Table 9): ≤ 1.6%
